The target in assay [1] is T1, Toll-like receptor 9 (Homo sapiens) (UniProt Q9NR96).
T1 sequence (whole entry): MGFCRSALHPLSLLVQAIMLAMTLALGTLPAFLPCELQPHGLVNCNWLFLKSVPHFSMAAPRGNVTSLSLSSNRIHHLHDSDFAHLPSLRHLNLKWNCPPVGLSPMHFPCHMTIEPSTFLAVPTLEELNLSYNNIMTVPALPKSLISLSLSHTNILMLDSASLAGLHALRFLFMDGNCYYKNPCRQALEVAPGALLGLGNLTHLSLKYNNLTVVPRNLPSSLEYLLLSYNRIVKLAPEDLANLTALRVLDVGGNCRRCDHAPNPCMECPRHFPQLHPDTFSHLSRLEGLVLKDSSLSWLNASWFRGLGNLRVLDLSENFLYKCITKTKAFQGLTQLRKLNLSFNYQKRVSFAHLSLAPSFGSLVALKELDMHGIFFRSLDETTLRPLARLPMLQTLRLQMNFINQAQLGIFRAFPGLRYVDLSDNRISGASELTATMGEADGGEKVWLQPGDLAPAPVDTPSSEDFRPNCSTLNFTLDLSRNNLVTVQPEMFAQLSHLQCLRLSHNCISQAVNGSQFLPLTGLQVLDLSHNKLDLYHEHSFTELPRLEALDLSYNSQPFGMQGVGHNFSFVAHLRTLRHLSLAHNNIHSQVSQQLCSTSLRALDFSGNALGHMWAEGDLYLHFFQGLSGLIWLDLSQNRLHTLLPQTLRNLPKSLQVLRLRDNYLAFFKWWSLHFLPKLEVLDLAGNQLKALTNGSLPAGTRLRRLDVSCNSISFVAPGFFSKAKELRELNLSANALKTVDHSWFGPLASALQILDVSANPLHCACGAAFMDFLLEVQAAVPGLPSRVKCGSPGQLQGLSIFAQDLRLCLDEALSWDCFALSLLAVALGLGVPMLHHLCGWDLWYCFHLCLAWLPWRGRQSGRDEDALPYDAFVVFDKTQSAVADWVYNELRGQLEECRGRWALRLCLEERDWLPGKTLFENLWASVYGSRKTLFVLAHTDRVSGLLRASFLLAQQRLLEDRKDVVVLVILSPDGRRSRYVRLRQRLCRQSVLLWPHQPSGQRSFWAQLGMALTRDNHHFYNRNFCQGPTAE
Kind of assay: Induction of TLR9-mediated immune stimulation in human PBMC assessed as MIP1beta production at 10 ug/ml after 24 hrs by luminex multiplex assay (RVb = 0.03 +/- 0.02 ng/ml).

In assay [2] the target is T1, Toll-like receptor 9 (Homo sapiens). As to the kind of experiment: Induction of TLR9-mediated immune stimulation in human PBMC assessed as RANTES production at 2 ug/ml after 24 hrs by luminex multiplex assay (RVb = 0.05 +/- 0.04 ng/ml).
For assay [3] the target is unchanged. As to the kind of experiment: Induction of TLR9-mediated immune stimulation in human PBMC assessed as MIP1alpha production at 2 ug/ml after 24 hrs by luminex multiplex assay (RVb = 0.01 ng/ml).
Assay [4] shares this target. Kind of assay: Induction of TLR9-mediated immune stimulation in human PBMC assessed as IL1Ralpha production at 2 ug/ml after 24 hrs by luminex multiplex assay (RVb = 0.12 +/- 0.03 ng/ml).
Assay [5] shares this target. As to the kind of experiment: Induction of TLR9-mediated immune stimulation in human PBMC assessed as IP10 production at 2 ug/ml after 24 hrs by luminex multiplex assay (RVb = 0.00 ng/ml).
For assay [6] the target is unchanged. As to the kind of experiment: Induction of TLR9-mediated immune stimulation in human PBMC assessed as RANTES production at 10 ug/ml after 24 hrs by luminex multiplex assay (RVb = 0.05 +/- 0.04 ng/ml).
Assay [7] shares this target. As to the kind of experiment: Induction of TLR9-mediated immune stimulation in human PBMC assessed as IL2R production at 10 ug/ml after 24 hrs by luminex multiplex assay (RVb = 0.02 +/- 0.01 ng/ml).
The target is the same in assay [8]. Kind of assay: Induction of TLR9-mediated immune stimulation in human PBMC assessed as MIP1beta production at 2 ug/ml after 24 hrs by luminex multiplex assay (RVb = 0.03 +/- 0.02 ng/ml).
Assay [9] shares this target. As to the kind of experiment: Induction of TLR9-mediated immune stimulation in human PBMC assessed as IL12 production at 2 ug/ml after 24 hrs by luminex multiplex assay (RVb = 0.00 ng/ml).

The values below come from ChEMBL document CHEMBL1157912, “Impact of nature and length of linker incorporated in agonists on toll-like receptor 9-mediated immune responses” (J Med Chem, 2010).

For `Cc1cn([C@H]2C[C@H](OCC(O)COP(=O)(S)O[C@H]3C[C@H](n4cc(C)c(=O)[nH]c4=O)O[C@@H]3COP(=O)(S)O[C@H]3[C@@H](O)[C@H](n4ccc(N)nc4=O)O[C@@H]3COP(=O)(S)O[C@H]3[C@@H](O)[C@H](n4cnc5c(N)ncnc54)O[C@@H]3COP(=O)(S)O[C@H]3[C@@H](O)[C@H](n4cnc5c(N)ncnc54)O[C@@H]3COP(=O)(S)O[C@H]3[C@@H](O)[C@H](n4ccc(N)nc4=O)O[C@@H]3COP(=O)(S)O[C@H]3[C@@H](O)[C@H](n4ccc(N)nc4=O)O[C@@H]3COP(=O)(S)O[C@H]3[C@@H](O)[C@H](n4cnc5c(N)ncnc54)O[C@@H]3COP(=O)(S)O[C@H]3[C@@H](O)[C@H](n4ccc(N)nc4=O)O[C@@H]3COP(=O)(S)O[C@H]3[C@@H](O)[C@H](n4cnc5c(N)ncnc54)O[C@@H]3COP(=O)(S)O[C@H]3[C@@H](O)[C@H](n4ccc(N)nc4=O)O[C@@H]3COP(=O)(S)O[C@H]3[C@@H](O)[C@H](n4cnc5c(N)ncnc54)O[C@@H]3CO)[C@@H](COP(=O)(S)O[C@H]3[C@@H](O)[C@H](n4ccc(N)nc4=O)O[C@@H]3COP(=O)(S)O[C@H]3[C@@H](O)[C@H](n4cnc5c(N)ncnc54)O[C@@H]3COP(=O)(S)O[C@H]3[C@@H](O)[C@H](n4cnc5c(N)ncnc54)O[C@@H]3COP(=O)(S)O[C@H]3[C@@H](O)[C@H](n4ccc(N)nc4=O)O[C@@H]3COP(=O)(S)O[C@H]3[C@@H](O)[C@H](n4ccc(N)nc4=O)O[C@@H]3COP(=O)(S)O[C@H]3[C@@H](O)[C@H](n4cnc5c(N)ncnc54)O[C@@H]3COP(=O)(S)O[C@H]3[C@@H](O)[C@H](n4ccc(N)nc4=O)O[C@@H]3COP(=O)(S)O[C@H]3[C@@H](O)[C@H](n4cnc5c(N)ncnc54)O[C@@H]3COP(=O)(S)O[C@H]3[C@@H](O)[C@H](n4ccc(N)nc4=O)O[C@@H]3COP(=O)(S)O[C@H]3[C@@H](O)[C@H](n4cnc5c(N)ncnc54)O[C@@H]3CO)O2)c(=O)[nH]c1=O` (some centres undefined), the Activity in assay [1] amounted to 0.15 ng/mL; in assay [2] it was 0.16 ng/mL; in assay [3], 0.04 ng/mL; in [4], 5.47 ng/mL; in assay [5] it was 0.01 ng/mL; in [6], 0.52 ng/mL. Moreover, the figures for the Activity in assay [7], in assay [8] and in assay [9] were 0.07 ng/mL, 0.07 ng/mL and 0.03 ng/mL, respectively.
